These results are taken from patent publication US4863925A, “Cyclohexanedione derivative for hepatic disorders and a process for producing the same” (Nihon Nohyaku Co., Ltd., priority 1986, dated 1989).

The assay has as its system hepatic disorder caused by carbon tetrachloride. The experiment in a line: Effect of suppressing hepatic disorder caused by carbon tetrachloride (Test Example 1). Details: key to Liver injury index: 0 = healthy, 2 = slight, 4 = evident injury, 6 = serious injury. The class given is in vivo, mice (dd-strain, male). As to conditions: 30 mg/kg p.o., 6 h before CCl4 0.05 ml/kg p.o., 24 h after CCl4, mean of five mice; for Liver injury index: 0 healthy, 2 slightly affected, 4 evidently observed injury, 6 serious injury; for P-GPT (plasma glutamic pyruvic transaminase activity): Reitman-Frankel, 2,000 or higher calculated as 2,000. As to the method:
Effect of suppressing hepatic disorder caused by carbon tetrachloride. […] The animals were sacrificed 24 hours after the administration of carbon tetrachloride, and the extent of liver injury was examined. On the other hand, blood was collected from the animal at the time of the sacrifice, and centrifuged to obtain plasma. The plasma glutamic pyruvic transminase (GPT) activity was determined according to the method of Reitman-Frankel. The activity was expressed in terms of Karmen Units (K.U.). The conditions of the liver were expressed in terms of liver injury index as follows. |Liver injury index | Condition of liver |0 Healthy liver |2 Slightly affected |4 Evidently observed injury |6 Serious injury Mice were used in groups of five of test were represented by the mean value. When the GPT activity was 2,000 units or higher, or further determination was made, the activity was calculated as 2,000 units for reasons of convenience.

As to `COc1ccc(C2CC(=O)C(=C3SC4C(S3)N(C)CCN4C)C(=O)C2)cc1` (stereo not shown) [compound 122], the Liver injury index came to 1.5 and the “P-GPT (plasma glutamic pyruvic transaminase activity)” value (“P-GPT” for short) was 231 K.U.
For `CCC(C)C1CC(=O)C(=C2SC3C(S2)N(C)CCN3C)C(=O)C1` (stereo not shown) [compound 21], in that order: 0.1 and 23 K.U.
For `Cc1cccc(C2CC(=O)C(=C3SC4C(S3)N(C)CCN4C)C(=O)C2)c1` (stereo not shown) [compound 42], in that order: 0 and 14 K.U.
For `CCCN1CCN(CCC)C2SC(=C3C(=O)CC(c4ccccc4)CC3=O)SC21` (stereo not shown) [compound 28], the Liver injury index stood at 0.2 and the “P-GPT” value was 39 K.U.
For `CN1CCN(C)C2(C)SC(=C3C(=O)CCCC3=O)SC12` (stereo not shown) [compound 11], in that order: 0.5 and 16 K.U.
For `CCc1ccc(C2CC(=O)C(=C3SC4C(S3)N(C)CCN4C)C(=O)C2)cc1` (stereo not shown) [compound 48], in that order: 0.3 and 18 K.U.
For `CCOC(=O)C1C(=O)C(=C2SC3C(S2)N(C)CCN3C)C(=O)CC1c1ccc(OC)cc1` (stereo not shown) [compound 103], in that order: 1.0 and 18 K.U.
For `COc1ccc(C2CC(=O)C(=C3SC4NCCNC4S3)C(=O)C2)cc1` (stereo not shown) [Compound No. 53], the Liver injury index is reported as 0.1 and the “P-GPT” value was 13 K.U.
Take `COc1ccc(C2CC(=O)C(=C3SC4NCCNC4(C)S3)C(=O)C2)cc1` (stereo not shown) [compound 92]: the Liver injury index is recorded as 0.4 and the “P-GPT” value is 15 K.U.
For `CN1CCN(C)C2SC(=C3C(=O)CC(c4ccccc4)CC3=O)SC21` (stereo not shown) [compound 26, 2-[2,5-dimethyl-2,5-diaza-7,9-dithiabicyclo(4,3, 0)-nonane-8-ylidene]-5-phenyl-1,3-cyclohexanedione], in that order: 0 and 12 K.U.
For `CN1CCN(C)C2SC(=C3C(=O)CC(c4ccccc4Cl)CC3=O)SC21` (stereo not shown) [compound 32], the Liver injury index amounted to 0.3 and the “P-GPT” value is recorded as 22 K.U.
For `Cc1ccc(C2CC(=O)C(=C3SC4NCC(C)NC4S3)C(=O)C2)cc1` (stereo not shown) [compound 78], in that order: 0.2 and 18 K.U.
For `COc1cccc(C2CC(=O)C(=C3SC4C(S3)N(C)CCN4C)C(=O)C2)c1` (stereo not shown) [compound 52], in that order: 0.1 and 14 K.U.
On to `Cc1ccccc1C1CC(=O)C(=C2SC3C(S2)N(C)CCN3C)C(=O)C1` (stereo not shown) [compound 41], for which the Liver injury index was 0.4 and the “P-GPT” value is given as 213 K.U.
For `CN1CCN(C)C2(C)SC(=C3C(=O)CC(c4ccco4)CC3=O)SC12` (stereo not shown) [compound 90], in that order: 0 and 15 K.U.
For `CCOC(=O)C1C(=O)C(=C2SC3C(S2)N(C)CCN3C)C(=O)CC1c1ccc(OCC)cc1` (stereo not shown) [compound 115], in that order: 0 and 39 K.U.
For `Cc1ccc(C2CC(=O)C(=C3SC4N(C)CCN(C)C4(C)S3)C(=O)C2)cc1` (stereo not shown) [compound 47], in that order: 0 and 24 K.U.
Take `CCN1CCN(CC)C2SC(=C3C(=O)CC(C)(C)CC3=O)SC21` (stereo not shown) [compound 6]: the Liver injury index amounted to 0 and the “P-GPT” value is 19 K.U.
For `COc1ccc(C2CC(=O)C(=C3SC4N(C)CCN(C)C4(C)S3)C(=O)C2)cc1` (stereo not shown) [compound 59], in that order: 0.1 and 16 K.U.
For `CC1CC(=O)C(=C2SC3C(S2)N(C)CCN3C)C(=O)C1` (stereo not shown) [compound 18], in that order: 1.2 and 22 K.U.
For `CN1CCNC2SC(=C3C(=O)CC(C)(C)CC3=O)SC21.Cl.Cl` (stereo not shown) [compound 118, 2-[2-methyl-2,5-diaza-7,9-dithiabicyclo-(4,3,0)-nonane-8-ylidene]-5,5-dimethyl-1,3-cyclohexanedione dihydrochloride salt], in that order: 0 and 32 K.U.
On to `CN1CCN(C)C2(C)SC(=C3C(=O)CC(C)(C)CC3=O)SC12` (stereo not shown) [compound 12, 2-[1,2,5-trimethyl-2,5-diaza-7,9-dithiabicyclo(4.3.0)-nonane-8-ylidene]-5,5-dimethyl-1,3-cyclohexanedione], for which the Liver injury index is 0.4 and the “P-GPT” value is reported as 33 K.U.
For `CN1CCNC2SC(=C3C(=O)CC(c4ccco4)CC3=O)SC21` (stereo not shown) [compound 108], in that order: 1.0 and 24 K.U.
For `CCN1CCN(CC)C2SC(=C3C(=O)CCCC3=O)SC21` (stereo not shown) [Compound No. 2], in that order: 0.4 and 15 K.U.
As for `CN1CCN(C)C2SC(=C3C(=O)CC(c4ccco4)CC3=O)SC21` (stereo not shown) [Compound No. 79], the Liver injury index is given as 0 and the “P-GPT” value is reported as 30 K.U.
For `CCCN1CCN(CCC)C2SC(=C3C(=O)CC(c4ccccc4)C(C(=O)OCC)C3=O)SC21` (stereo not shown) [compound 114], in that order: 2.2 and 26 K.U.
For `CCCN1CCN(CCC)C2SC(=C3C(=O)CC(c4ccc(OC)cc4)CC3=O)SC21` (stereo not shown) [compound 57], in that order: 0.2 and 142 K.U.
For `CCOc1ccc(C2CC(=O)C(=C3SC4C(S3)N(C)CCN4C)C(=O)C2)cc1` (stereo not shown) [compound 60], in that order: 0.1 and 26 K.U.
Consider `CCOc1ccc(C2CC(=O)C(=C3SC4C(S3)N(CC)CCN4CC)C(=O)C2)cc1` (stereo not shown) [compound 61], for which the Liver injury index is 1.5 and the “P-GPT” value is reported as 494 K.U.
For `CCN1CCN(CC)C2SC(=C3C(=O)CC(c4ccc(OC)cc4)CC3=O)SC21` (stereo not shown) [compound 56], in that order: 2.5 and 50 K.U.
For `CCOC(=O)C1C(=O)C(=C2SC3C(S2)N(C)CCN3C)C(=O)CC1c1ccccc1Cl` (stereo not shown) [compound 104], in that order: 1.7 and 345 K.U.
For `CC1(C)CC(=O)C(=C2SC3NCCNC3(C)S2)C(=O)C1` (stereo not shown) [compound 111], in that order: 1.0 and 14 K.U.
Consider `CN1CCN(C)C2(C)SC(=C3C(=O)CC(c4cccs4)CC3=O)SC12` (stereo not shown) [compound 105], for which the Liver injury index is 0 and the “P-GPT” value is on record as 15 K.U.
Consider `CCCN1CCN(CCC)C2SC(=C3C(=O)CCCC3=O)SC21` (stereo not shown) [compound 10], for which the Liver injury index is recorded as 0 and the “P-GPT” value is 41 K.U.
For `CCCN1CCN(CCC)C2SC(=C3C(=O)CC(C)(C)CC3=O)SC21` (stereo not shown) [Compound No. 7], in that order: 0 and 16 K.U.
For `CN1CCN(C)C2SC(=C3C(=O)CC(c4ccc(F)cc4)CC3=O)SC21` (stereo not shown) [compound 36], in that order: 1.5 and 268 K.U.
Turning to `CN1CCN(C)C2SC(=C3C(=O)CCCC3=O)SC21` (stereo not shown) [compound 1], the Liver injury index is 0.2 and the “P-GPT” value is given as 14 K.U.
For `CCOc1ccc(C2CC(=O)C(=C3SC4N(C)CCN(C)C4(C)S3)C(=O)C2)cc1` (stereo not shown) [compound 63], in that order: 0 and 15 K.U.
For `CN1CCN(C)C2SC(=C3C(=O)CC(C)(C)CC3=O)SC21` (stereo not shown) [Compound No. 4], in that order: 0 and 11 K.U.
For `CN1CCNC2SC(=C3C(=O)CC(c4cccs4)CC3=O)SC21` (stereo not shown) [compound 109], in that order: 0 and 17 K.U.
Take `C=CCN1CCN(CC=C)C2(C)SC(=C3C(=O)CC(C)(C)CC3=O)SC12` (stereo not shown) [compound 106]: the Liver injury index came out at 1.2 and the “P-GPT” value was 242 K.U.
Turning to `COc1ccccc1C1CC(=O)C(=C2SC3C(S2)N(C)CCN3C)C(=O)C1` (stereo not shown) [compound 51], the Liver injury index was determined as 0 and the “P-GPT” value is reported as 81 K.U.
For `COc1ccc(C2CC(=O)C(=C3SC4C(S3)N(C)CCN4C)C(=O)C2)cc1OC` (stereo not shown) [compound 65], in that order: 1.6 and 347 K.U.
For `CCC1CCC(=O)C(=C2SC3C(S2)N(C)CCN3C)C1=O` (stereo not shown) [compound 25], in that order: 0.8 and 15 K.U.
